Measured values: ChEMBL document CHEMBL1148416, “2-Alkylsulfanyl estrogen derivatives: synthesis of a novel class of multi-targeted anti-tumour agents” (Bioorg Med Chem Lett, 2004)
pIC50: −log10 of the molar value.

test system: MCF7; assay: Anti-proliferative activity against MCF-7 human breast cancer cells was determined by using MCF-7 plate assay; type: functional, cell-based

SMILES	pIC50
CSc1cc2c(cc1O)CCC1[C@@H]2CC[C@]2(C)C(=O)CC[C@@H]12 (single isomer, unassigned)	4.48
CSc1cc2c(cc1OS(N)(=O)=O)CC[C@@H]1[C@@H]2CC[C@]2(C)[C@@H](O)CC[C@@H]12	6.37
CCSc1cc2c(cc1O)CCC1[C@@H]2CC[C@]2(C)C(=O)CC[C@@H]12 (single isomer, unassigned)	4.50
COc1cc2c(cc1O)CC[C@@H]1[C@@H]2CC[C@]2(C)[C@@H](O)CC[C@@H]12 [2-METHOXYESTRADIOL]	5.62
CSc1cc2c(cc1O)CC[C@@H]1[C@@H]2CC[C@]2(C)[C@@H](O)CC[C@@H]12	5.40
CCSc1cc2c(cc1OS(N)(=O)=O)CC[C@@H]1[C@@H]2CC[C@]2(C)[C@@H](O)CC[C@@H]12	4.45
CSc1cc2c(cc1OS(N)(=O)=O)CCC1[C@@H]2CC[C@]2(C)C(=O)CC[C@@H]12 (single isomer, unassigned)	6.40
C[C@]12CC[C@@H]3c4ccc(OS(N)(=O)=O)cc4CCC3[C@@H]1CCC2=O (single isomer, unassigned) [EMATE]	4.64
